Reference: ChEMBL document CHEMBL3046079, “Synthesis, herbicidal activity, and mode of action of IR 5790” (J Agric Food Chem, 2001)
Activity calls are given as the source filed them. The calls are words filed in the database; no cut-off is given here.

How the values were obtained:
[1] = biological target: T1, Putative protoporphyrinogen IX oxidase (Cucumis sativus) (UniProt C6L817); assay: Inhibition of protoporphyrin oxidase in Cucumis sativus (cucumber) cotyledon disc assessed as increase in extraplastidic protoporphyrin 9 accumulation at 10 uM incubated in dim light for 2 hr by HPLC analysis relative to control
T1 sequence (whole entry): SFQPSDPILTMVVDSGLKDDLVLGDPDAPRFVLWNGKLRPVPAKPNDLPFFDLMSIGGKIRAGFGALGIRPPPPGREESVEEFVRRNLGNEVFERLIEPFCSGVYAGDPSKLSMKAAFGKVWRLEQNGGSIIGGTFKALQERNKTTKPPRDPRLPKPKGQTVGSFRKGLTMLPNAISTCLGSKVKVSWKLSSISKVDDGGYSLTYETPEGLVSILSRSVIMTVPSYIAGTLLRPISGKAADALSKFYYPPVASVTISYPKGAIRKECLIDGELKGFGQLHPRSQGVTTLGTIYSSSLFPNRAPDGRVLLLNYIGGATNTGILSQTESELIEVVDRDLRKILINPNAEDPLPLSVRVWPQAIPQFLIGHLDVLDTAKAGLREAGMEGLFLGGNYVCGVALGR

Cucumis sativus = assay: Induction of photobleaching in Cucumis sativus (cucumber) cotyledon disc at 1 to 100 uM incubated for 20 hr in dark followed by 8 hr in presence of light; assay type: functional
Phalaris arundinacea [2] = assay: Post-emergence herbicidal activity against Phalaris arundinacea assessed as injury at 150 g/ha applied at 15 days post-sowing measured after 15 days relative to control; assay type: functional
Stellaria media [3] = assay: Pre-emergence herbicidal activity against Stellaria media assessed as injury at 50 g/ha applied at 24 hr post-sowing measured after 28 days relative to control; assay type: functional
Portulaca oleracea [4] = assay: Pre-emergence herbicidal activity against Portulaca oleracea assessed as injury at 50 g/ha applied at 24 hr post-sowing measured after 28 days relative to control; assay type: functional
Geranium dissectum [5] = assay: Pre-emergence herbicidal activity against Geranium dissectum assessed as injury at 50 g/ha applied at 24 hr post-sowing measured after 28 days relative to control; assay type: functional
Capsella bursa-pastoris = assay: Pre-emergence herbicidal activity against Capsella bursa-pastoris assessed as injury at 50 g/ha applied at 24 hr post-sowing measured after 28 days relative to control; assay type: functional
Ammi majus = assay: Pre-emergence herbicidal activity against Amni maius assessed as injury at 50 g/ha applied at 24 hr post-sowing measured after 28 days relative to control; assay type: functional
Amaranthus retroflexus = assay: Pre-emergence herbicidal activity against Amaranthus retroflexus assessed as injury at 50 g/ha applied at 24 hr post-sowing measured after 28 days relative to control; assay type: functional
Phalaris arundinacea [6] = assay: Pre-emergence herbicidal activity against Phalaris arundinacea assessed as injury at 150 g/ha applied at 24 hr post-sowing measured after 28 days relative to control; assay type: functional
Brassica napus = assay: Phytotoxicity against Brassica napus (oilseed rape) assessed as injury at 50 g/ha applied as pre-emergent treatment at 24 hr post-sowing measured after 28 days relative to control; assay type: organism-based; conditions: in vivo, other, 672 h
Phalaris arundinacea [7] = assay: Pre-emergence herbicidal activity against Phalaris arundinacea assessed as injury at 50 g/ha applied at 24 hr post-sowing measured after 28 days relative to control; assay type: functional
Panicum dichotomiflorum = assay: Pre-emergence herbicidal activity against Panicum dichotomiflorum assessed as injury at 50 g/ha applied at 24 hr post-sowing measured after 28 days relative to control; assay type: functional
Alopecurus myosuroides [8] = assay: Pre-emergence herbicidal activity against Alopecurus myosuroides assessed as injury at 50 g/ha applied at 24 hr post-sowing measured after 28 days relative to control; assay type: functional
Alopecurus myosuroides [9] = assay: Post-emergence herbicidal activity against Alopecurus myosuroides assessed as injury at 150 g/ha applied at 15 days post-sowing measured after 15 days relative to control; assay type: functional
Avena fatua = assay: Post-emergence herbicidal activity against Avena fatua assessed as injury at 150 g/ha applied at 15 days post-sowing measured after 15 days relative to control; assay type: functional
Solanum nigrum [10] = assay: Post-emergence herbicidal activity against Solanum nigrum (black nightshade) assessed as injury at 150 g/ha applied at 15 days post-sowing measured after 15 days relative to control; assay type: functional
Abutilon theophrasti = assay: Post-emergence herbicidal activity against Abutilon theophrasti (velvetleaf) assessed as injury at 50 g/ha applied at 15 days post-sowing measured after 15 days relative to control; assay type: functional
Triticum aestivum [11] = assay: Phytotoxicity against Triticum aestivum (wheat) assessed as injury at 150 g/ha applied as post-emergent treatment at 15 days post-sowing measured after 15 days relative to control; assay type: organism-based; conditions: in vivo, other, 360 h
Portulaca oleracea [12] = assay: Post-emergence herbicidal activity against Portulaca oleracea assessed as injury at 5 g/ha applied at 15 days post-sowing measured after 15 days relative to control; assay type: functional
Calystegia sepium [13] = assay: Post-emergence herbicidal activity against Calystegia sepium assessed as injury at 5 g/ha applied at 15 days post-sowing measured after 15 days relative to control; assay type: functional
Triticum aestivum [14] = assay: Phytotoxicity against Triticum aestivum (wheat) assessed as injury at 15 g/ha applied as post-emergent treatment at 15 days post-sowing measured after 15 days relative to control; assay type: organism-based; conditions: in vivo, other, 360 h
Stellaria media [15] = assay: Post-emergence herbicidal activity against Stellaria media assessed as injury at 15 g/ha applied at 15 days post-sowing measured after 15 days relative to control; assay type: functional
Calystegia sepium [16] = assay: Post-emergence herbicidal activity against Calystegia sepium assessed as injury at 15 g/ha applied at 15 days post-sowing measured after 15 days relative to control; assay type: functional
Chenopodium album = assay: Post-emergence herbicidal activity against Chenopodium album assessed as injury at 15 g/ha applied at 15 days post-sowing measured after 15 days relative to control; assay type: functional
Xanthium strumarium = assay: Pre-emergence herbicidal activity against Xanthium strumarium (cocklebur) assessed as injury at 150 g/ha applied at 24 hr post-sowing measured after 28 days relative to control; assay type: functional
Solanum nigrum [17] = assay: Pre-emergence herbicidal activity against Solanum nigrum (black nightshade) assessed as injury at 150 g/ha applied at 24 hr post-sowing measured after 28 days relative to control; assay type: functional
Glycine max = assay: Phytotoxicity against Glycine max (soybean) assessed as injury at 50 g/ha applied as post-emergent treatment at 15 days post-sowing measured after 15 days relative to control; assay type: organism-based; conditions: in vivo, other, 360 h
Phalaris arundinacea [18] = assay: Post-emergence herbicidal activity against Phalaris arundinacea assessed as injury at 50 g/ha applied at 15 days post-sowing measured after 15 days relative to control; assay type: functional
Alopecurus myosuroides [19] = assay: Post-emergence herbicidal activity against Alopecurus myosuroides assessed as injury at 50 g/ha applied at 15 days post-sowing measured after 15 days relative to control; assay type: functional
Solanum nigrum [20] = assay: Post-emergence herbicidal activity against Solanum nigrum (black nightshade) assessed as injury at 50 g/ha applied at 15 days post-sowing measured after 15 days relative to control; assay type: functional
Portulaca oleracea [21] = assay: Post-emergence herbicidal activity against Portulaca oleracea assessed as injury at 50 g/ha applied at 15 days post-sowing measured after 15 days relative to control; assay type: functional
Geranium dissectum [22] = assay: Post-emergence herbicidal activity against Geranium dissectum assessed as injury at 50 g/ha applied at 15 days post-sowing measured after 15 days relative to control; assay type: functional

## C#CCOc1cc(-n2nc(C(C)(C)C)sc2=O)c(Cl)cc1Cl
[1]
  fold change (FC): 234
Cucumis sativus
  Activity: inactive
Phalaris arundinacea [2]
  Activity: 30%
Stellaria media [3]
  Activity: 0%
Portulaca oleracea [4]
  Activity: 70%
Geranium dissectum [5]
  Activity: 0%
Capsella bursa-pastoris
  Activity: 70%
Ammi majus
  Activity: 0%
Amaranthus retroflexus
  Activity: 50%
Phalaris arundinacea [6]
  Activity: 0%
Brassica napus
  Activity: 0%
Phalaris arundinacea [7]
  Activity: 0%
Panicum dichotomiflorum
  Activity: 90%
Alopecurus myosuroides [8]
  Activity: 10%
Alopecurus myosuroides [9]
  Activity: 70%
Avena fatua
  Activity: 30%
Solanum nigrum [10]
  Activity: 90%
Abutilon theophrasti
  Activity: 70%
Triticum aestivum [11]
  Activity: 50%
Portulaca oleracea [12]
  Activity: 50%
Calystegia sepium [13]
  Activity: 10%
Triticum aestivum [14]
  Activity: 0%
Stellaria media [15]
  Activity: 0%
Calystegia sepium [16]
  Activity: 50%
Chenopodium album
  Activity: 70%
Xanthium strumarium
  Activity: 0%
Solanum nigrum [17]
  Activity: 70%
Glycine max
  Activity: 10%
Phalaris arundinacea [18]
  Activity: 30%
Alopecurus myosuroides [19]
  Activity: 30%
Solanum nigrum [20]
  Activity: 90%
Portulaca oleracea [21]
  Activity: 90%
Geranium dissectum [22]
  Activity: 50%
